Literature values as cited in patent US7590494B1, “Drug design based on the structure of LTA4 hydrolase” (priority 1999, dated 2009).

Biological target: T1, LTA4 hydrolase (Homo sapiens, UniProt P09960)
T1 sequence (P09960 1-611): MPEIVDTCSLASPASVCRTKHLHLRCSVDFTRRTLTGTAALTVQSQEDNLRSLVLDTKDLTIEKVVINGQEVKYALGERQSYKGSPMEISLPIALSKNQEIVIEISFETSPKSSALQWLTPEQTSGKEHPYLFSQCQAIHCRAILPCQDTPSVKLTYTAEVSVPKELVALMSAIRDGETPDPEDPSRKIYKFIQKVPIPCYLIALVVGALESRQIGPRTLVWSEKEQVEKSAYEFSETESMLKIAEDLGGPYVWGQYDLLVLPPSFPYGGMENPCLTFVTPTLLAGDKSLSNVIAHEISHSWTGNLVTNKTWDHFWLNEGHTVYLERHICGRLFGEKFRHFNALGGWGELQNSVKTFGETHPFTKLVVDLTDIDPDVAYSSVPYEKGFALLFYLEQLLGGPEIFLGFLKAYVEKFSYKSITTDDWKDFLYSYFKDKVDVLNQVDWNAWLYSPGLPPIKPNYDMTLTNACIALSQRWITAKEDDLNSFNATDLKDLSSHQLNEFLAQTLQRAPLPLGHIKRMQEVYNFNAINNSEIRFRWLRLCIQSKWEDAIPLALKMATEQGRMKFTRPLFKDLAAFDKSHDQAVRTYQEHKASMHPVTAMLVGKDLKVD
Conditions: qualitative statement from Örning et al. 1991

inhibition of LTA4 hydrolase | Structure (SMILES)
inhibited | CC(C)C[C@H](NC(=O)[C@@H](O)[C@H](N)Cc1ccccc1)C(=O)O [bestatin]
inhibited | C[C@H](CS)C(=O)N1CCC[C@H]1C(=O)O [captopril]
